Columns and labels:
Type in all cases: in vivo
Avena fatua (AVEFA) = assay: Herbicidal pre-emergence action, section C (Table C4); details: 504 h, application rate 320 g/ha, visual grading ca. 3 weeks after treatment vs untreated controls, 100% = plants have died off, 0% = as control plants, read-out: pre-emergence activity against AVEFA
From the text: Seeds of mono- and dicotyledonous weed plants and crop plants were sown, in plastic or organic planting pots, in sandy loam and covered with soil. The compounds according to the invention, formulated in the form of wettable powders (WP) or as emulsifiable concentrates (EC), were applied to the surface of the covering soil as aqueous suspension or emulsion, with the addition of 0.5% of an additive, at an application rate of 600 l of water/ha (converted). Following treatment, the pots were placed in a greenhouse and kept under optimum growth conditions for the test plants. The visual grading of the damage to the test plants was carried out after ca. 3 weeks in comparison to untreated controls (herbicidal effect in percent (%): 100% effect=plants have died off, 0% effect=as control plants).

Oryza sativa (ORYZA) = assay: Pre-emergence effects on crop plants, section D (Table D3); details: visual grading after ca. 3 weeks
From the text: Seeds of mono- and dicotyledonous weed plants and crop plants were sown, in plastic or organic planting pots, in sandy loam and covered with soil. The compounds according to the invention, formulated in the form of wettable powders (WP) or as emulsifiable concentrates (EC), were applied to the surface of the covering soil as aqueous suspension or emulsion, with the addition of 0.5% of an additive, at an application rate of 600 l of water/ha (converted).
Following treatment, the pots were placed in a greenhouse and kept under optimum growth conditions for the test plants. The visual grading of the damage to the test plants was carried out after ca. 3 weeks in comparison to untreated controls (herbicidal effect in percent (%): 100% effect=plants have died off, 0% effect=as control plants).
Tables D1 to D5 below show the effects of various compounds of the general formula (I) according to Table 1 on various crop plants and an application rate corresponding to 320 g/ha or below obtained by the experimental procedure mentioned above in Biological Examples, Section C.

Brassica napus (BRSNW) = assay: Pre-emergence effects on crop plants, section D (Table D5); details: visual grading after ca. 3 weeks
In short: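 Formulated compound (wettable powder or emulsifiable concentrate) was applied pre-emergence to the soil surface at 320 g/ha or lower. Greenhouse-grown plants were rated visually for percent damage after ca. 3 weeks.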

[1] = tested on: Digitaria sanguinalis (DIGSA); assay: Herbicidal post-emergence action, section E (Table E4); details: application rate 80 g/ha; assessed visually ca. 3 weeks after treatment vs untreated controls; 100% = plants have died off, 0% = as control plants
From the text: (§1) Seeds of mono- and dicotyledonous weed plants and crop plants were sown, in plastic or organic planting pots, in sandy loam, covered with soil and grown in a greenhouse under controlled growth conditions. 2 to 3 weeks after sowing, the test plants were sprayed in the single-leaf stage. The compounds according to the invention, formulated in form of wettable powders (WP) or as emulsifiable concentrates (EC), were sprayed onto the green plant parts as aqueous suspension or emulsion, with the addition of 0.5% of an additive, at an application rate of 600 l of water/ha (converted). The test plants were placed in the greenhouse for ca. 3 weeks under optimum growth conditions, and then the effect of the preparations was assessed visually in comparison with untreated controls (herbicidal effect in percent (%): 100% effect=plants have died off, 0% effect=as control plants).

Viola tricolor (VIOTR) = assay: Herbicidal post-emergence action, section E (Table E10); details: application rate 320 g/ha, visual assessment ca. 3 weeks after spraying
From the text: as §1

Fc1ccccc1-c1nc2c(cc1Br)SCN2 [Example I-001, 6-bromo-5-(2-fluorophenyl)-2,3-dihydro[1,3]thiazolo[4,5-b]pyridine]
pest or weed control at 320 g/ha (Avena fatua (AVEFA)): 80% | pre-emergence activity against ORYZA in % (crop plant damage) (Oryza sativa (ORYZA); application rate 80 g/ha): 20% | pre-emergence activity against BRSNW in % (crop plant damage) (Brassica napus (BRSNW); application rate 320 g/ha): 20%

COC(=O)CCC(=O)N1CSc2cc(Cl)c(-c3ccccc3F)nc21 [Example I-003]
pre-emergence activity against BRSNW in % (crop plant damage) (Brassica napus (BRSNW); application rate 80 g/ha): 20%

Cc1cc2c(nc1-c1ccccc1F)NCS2 [Example I-007, 5-(2-fluorophenyl)-6-methyl-2,3-dihydro[1,3]thiazolo[4,5-b]pyridine]
pest or weed control at 320 g/ha (Avena fatua (AVEFA)): 80% | post-emergence activity against DIGSA [1]: 90%

Clc1ccccc1-c1nc2c(cc1Br)SCN2 [Example I-041, 6-bromo-5-(2-chlorophenyl)-2,3-dihydro[1,3]thiazolo[4,5-b]pyridine]
pre-emergence activity against ORYZA in % (crop plant damage) (Oryza sativa (ORYZA); application rate 320 g/ha): 20%

CC(=O)N1CSc2cc(Br)c(-c3ccccc3Cl)nc21 [Example I-055, 1-[6-bromo-5-(2-chlorophenyl)[1,3]thiazolo[4,5-b]pyridin-3(2H)-yl]ethanone]
pre-emergence activity against ORYZA in % (crop plant damage) (Oryza sativa (ORYZA); application rate 320 g/ha): 20% | pre-emergence activity against BRSNW in % (crop plant damage) (Brassica napus (BRSNW); application rate 80 g/ha): 20%

CCS(=O)(=O)N1CSc2cc(C)c(-c3ccccc3F)nc21 [Example I-060, 3-(ethylsulfonyl)-5-(2-fluorophenyl)-6-methyl-2,3-dihydro[1,3]thiazolo[4,5-b]pyridine]
pest or weed control at 320 g/ha (Avena fatua (AVEFA)): 90%

CC(C)C(=O)N1C[S+]([O-])c2cc(Br)c(-c3ccccc3)nc21 (stereo not drawn) [Example I-067]
pre-emergence activity against ORYZA in % (crop plant damage) (Oryza sativa (ORYZA); application rate 80 g/ha): 20%

Cc1cc2c(nc1-c1ccccc1F)N(C(=O)C1(C)CC(Cl)=NO1)CS2 (stereo not drawn) [Example I-083]
pre-emergence activity against ORYZA in % (crop plant damage) (Oryza sativa (ORYZA); application rate 80 g/ha): 20%

Cc1cc2c(nc1-c1ccccc1)N(C(=O)C1(C)CC(Cl)=NO1)CS2 (stereo not drawn) [Example I-088]
post-emergence activity against VIOTR in % (Viola tricolor (VIOTR)): 80%

Cc1cc2c(nc1-c1ccccc1F)N(C(=O)C13CCCC1C(Cl)=NO3)CS2 (stereo not drawn) [Example I-104]
post-emergence activity against VIOTR in % (Viola tricolor (VIOTR)): 80%

CC1(C(=O)N2CSc3cc(Br)c(-c4ccccc4Cl)nc32)CC(Cl)=NO1 (stereo not drawn) [Example I-141, [6-bromo-5-(2-chlorophenyl)[1,3]thiazolo[4,5-b]pyridin-3(2H)-yl](3-chloro-5-methyl-4,5-dihydro-1,2-oxazol-5-yl)methanone]
pre-emergence activity against BRSNW in % (crop plant damage) (Brassica napus (BRSNW); application rate 80 g/ha): 20%
